Source: US20170009266A1, “PROCESS FOR THE ATTACHMENT OF A GALNAC MOIETY COMPRISING A (HETERO)ARYL GROUP TO A GLCNAC MOIETY, AND PRODUCT OBTAINED THEREBY” (SYNAFFIX B.V., priority 2014, published 2017)

Molecular target: T1, Gal-T1(Y289L,C342T) (Bos taurus, UniProt P08037, C342T/Y289L)
T1 construct: host or cells: CHO K1
T1 sequence (P08037 74-402 V158I/P187L/I205M/L206V/Y289L/C342T): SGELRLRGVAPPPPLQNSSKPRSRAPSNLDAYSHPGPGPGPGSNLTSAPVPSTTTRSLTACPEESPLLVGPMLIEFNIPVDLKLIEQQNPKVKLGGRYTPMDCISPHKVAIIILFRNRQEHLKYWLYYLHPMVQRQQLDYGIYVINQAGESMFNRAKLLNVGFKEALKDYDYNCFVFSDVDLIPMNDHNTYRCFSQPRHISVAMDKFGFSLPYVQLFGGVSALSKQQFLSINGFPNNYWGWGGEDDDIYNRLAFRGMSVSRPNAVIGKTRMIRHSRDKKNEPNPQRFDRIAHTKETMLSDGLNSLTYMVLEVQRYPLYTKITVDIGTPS
Test: Glycosyltransfer to trimmed trastuzumab with Gal-T1(Y289L,C342T) expressed in CHO
Type: biochemical, bovine
Details: trimmed trastuzumab 10 mg/mL; UDP derivative 5 mM; enzyme 2.0 mg/mL; pH 8.0, 30° C. overnight
Description: A solution of 20 μg (modified) IgG was incubated for 1 hour at 37° C. with Fabricator™ (commercially available from Genovis, Lund, Sweden) (1.25 U/μL) in phosphate-buffered saline (PBS) pH 6.6 in a total volume of 10 μL. Fabricator™-digested samples were washed trice with milliQ using an Amicon Ultra-0.5, Ultracel-10 Membrane (Millipore) resulting in a final sample volume of approximately 40 μL. The Fc/2 fragment was analyzed by electrospray ionization time-of-flight (ESI-TOF) on a JEOL AccuTOF. Deconvoluted spectra were obtained using Magtran software.
A set of Gal-T 1 mutants encoding residues 74-402 of bovine Gal-T 1 were transiently expressed in CHO K1 cells by Evitria (Zurich, Switzerland) which include the Gal-T1 single mutants Y289L (represented by SEQ ID NO: 26), Y289F (represented by SEQ ID NO: 27), Y289M (represented by SEQ ID NO: 28), Y289V (represented by SEQ ID NO: 29), Y289A (represented by SEQ ID NO: 30), and Y289G (represented by SEQ ID NO: 31), and the Gal-T1 double mutants Y289L,C342T (represented by SEQ ID NO: 32), and Y289M,C342T (represented by SEQ ID NO: 33). The mutants were purified using a cation exchange column (Source 15S HR16/10 column, GE Healthcare) as described above. Purified proteins were analyzed by SDS-PAGE. […]

Structure (SMILES): [N-]=[N+]=Nc1c(F)cc(C(=O)N[C@H]2[C@@H](OP(=O)(O)OP(=O)(O)OC[C@H]3O[C@@H](n4ccc(=O)[nH]c4=O)[C@H](O)[C@@H]3O)O[C@H](CO)[C@H](O)[C@@H]2O)cc1F [Compound 23, 4-azido-3,5-difluorobenzoyl Derivative of UDP-GalNH2]
- conversion of core GlcNAc(Fuc)-substituted trastuzumab into product: complete conversion
